Like-named read-outs stand apart in the source and are kept apart here.
Tested on: PDE4
Test: Evaluation of PDE4 inhibitory activity, scintillation proximity assay
Format: biochemical
Conditions: scintillation proximity assay
Summary of the method: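 SPA with [2,8-3H]-cAMP and diluted PDE4 enzyme preparation in 50 mM Tris-HCl pH 7.4, 8.3 mM MgCl2, 1.7 mM EGTA, 3 mg/mL BSA, 120 min at room temperature. Product captured on ZnSO4-containing YSi-SPA beads, scintillation counted; IC50 from inhibition curves vs DMSO control and no-enzyme blank.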

[1] = class symbols of Evaluation 1, read-out: PDE4 Inhibitory Activity (concentration for the inhibition rate of 50%, IC50), Evaluation 1
[2] = read-out: PDE4 Inhibitory Activity (Evaluation 1; concentration for the inhibition rate of 50%)

| Compound | IC50 [1] [nM] | IC50 [2] [nM] |
| --- | --- | --- |
| COc1cc(-c2nccs2)c2oc(N3CC4CCC(C3)N4)nc2c1 [Example 60, 2-(3,8-Diazabicyclo[3.2.1]octan-3-yl)-5-methoxy-7-(thiazol-2-yl)benzo[d]oxazole] | < 100 |  |
| c1csc(-c2ccc(N3CCCC3)c3nc(N4CC5CC(C4)N5)oc23)n1 [Example 415, 2-(3,6-Diazabicyclo[3.1.1]heptan-3-yl)-4-(pyrrolidin-1-yl)-7-(thiazol-2-yl)benzo[d]oxazole] |  | < 100 |
| COC(C)c1cc(-c2nccs2)c2oc(N3CC4CC(C3)N4)nc2c1C(F)(F)F (stereo not drawn) [Example 185, 2-(3,6-Diazabicyclo[3.1.1]heptan-3-yl)-5-(1-methoxyethyl)-7-(thiazol-2-yl)-4-(trifluoromethyl)benzo[d]oxazole] |  | < 100 |
| CCOC(=O)c1cc(-n2cccn2)c2oc(N3CC4CCC(C3)N4)nc2c1 [Example 90, Ethyl 2-(3,8-diazabicyclo[3.2.1]octan-3-yl)-7-(1H-pyrazol-1-yl)benzo[d]oxazole-5-carboxylate] | 100 to 1000 |  |
| CC(C)(O)c1cc(-c2cscn2)c2oc(N3CC4CCC(C3)N4)nc2c1OC(F)(F)F [Example 291, 2-(2-(3,8-Diazabicyclo[3.2.1]octan-3-yl)-7-(thiazol-4-yl)-4-(trifluoromethoxy)benzo[d]oxazol-5-yl)propan-2-ol] |  | < 100 |
| O=S1(=O)CCN(c2ccc(-c3nccs3)c3oc(N4CC5CC(C4)N5)nc23)CC1 [Example 398, 4-(2-(3,6-Diazabicyclo[3.1.1]heptan-3-yl)-7-(thiazol-2-yl)benzo[d]oxazol-4-yl)thiomorpholine 1,1-dioxide] |  | < 100 |
| OCc1ccc(-c2nccs2)c2oc(N3CC4CCC(C3)N4)nc12 [Example 132, (2-(3,8-Diazabicyclo[3.2.1]octan-3-yl)-7-(thiazol-2-yl)benzo[d]oxazol-4-yl)methanol] | < 100 |  |
| CSc1ccc(-c2nccs2)c2oc(N3CC4CC(C3)N4)nc12 [Example 345, 2-(3,6-Diazabicyclo[3.1.1]heptan-3-yl)-4-(methylthio)-7-(thiazol-2-yl)benzo[d]oxazole] |  | < 100 |
| CC(C)(O)C1CC(Oc2ccc(-c3nccs3)c3oc(N4CC5CC(C4)N5)nc23)C1 (stereo not drawn) [Example 267, 2-(3-((2-(3,6-Diazabicyclo[3.1.1]heptan-3-yl)-7-(thiazol-2-yl)benzo[d]oxazol-4-yl)oxy)cyclobutyl)propan-2-ol] |  | < 100 |
| O=C(O)c1cc(-c2nccs2)c2oc(N3CC4CCCC(C3)N4)nc2c1OC(F)(F)F [Example 191, 2-(3,9-Diazabicyclo[3.3.1]nonan-3-yl)-7-(thiazol-2-yl)-4-(trifluoromethoxy)benzo[d]oxazole-5-carboxylic acid] |  | 100 to 1000 |
| CC(C)(CO)Oc1ccc(-c2nccs2)c2oc(N3CC4CC(C3)N4)nc12 [Example 268, 2-((2-(3,6-Diazabicyclo[3.1.1]heptan-3-yl)-7-(thiazol-2-yl)benzo[d]oxazol-4-yl)oxy)-2-methylpropan-1-ol] |  | < 100 |
| c1csc(-c2ccc(OC3CCC3)c3nc(N4CC5CCC(C4)N5)oc23)n1 [Example 81, 2-(3,8-Diazabicyclo[3.2.1]octan-3-yl)-4-cyclobutoxy-7-(thiazol-2-yl)benzo[d]oxazole] | < 100 |  |
| O=C(O)c1cc(-c2nccs2)c2oc(N3CC4CC(C3)N4)nc2c1OC(F)(F)F [Example 190, 2-(3,6-Diazabicyclo[3.1.1]heptan-3-yl)-7-(thiazol-2-yl)-4-(trifluoromethoxy)benzo[d]oxazole-5-carboxylic acid] |  | > 1000 |
| c1csc(-c2ccc(C3CC3)c3nc(N4CC5CC(C4)N5)oc23)n1 [Example 344, 2-(3,6-Diazabicyclo[3.1.1]heptan-3-yl)-4-cyclopropyl-7-(thiazol-2-yl)benzo[d]oxazole] |  | < 100 |
| FC(F)(F)COc1cc(-c2nccs2)c2oc(N3CC4CCC(C3)N4)nc2c1 [Example 66, 2-(3,8-Diazabicyclo[3.2.1]octan-3-yl)-7-(thiazol-2-yl)-5-(2,2,2-trifluoroethoxy)benzo[d]oxazole] | < 100 |  |
| CC(C)(O)c1cc(-c2nccs2)c2oc(N3CC4CC(C3)N4)nc2c1 [Example 173, 2-(2-(3,6-Diazabicyclo[3.1.1]heptan-3-yl)-7-(thiazol-2-yl)benzo[d]oxazol-5-yl)propan-2-ol] | < 100 |  |
| OC(c1ccc(-c2nccs2)c2oc(N3CC4CC(C3)N4)nc12)C(F)(F)F (stereo not drawn) [Example 121, 1-(2-(3,6-Diazabicyclo[3.1.1]heptan-3-yl)-7-(thiazol-2-yl)benzo[d]oxazol-4-yl)-2,2,2-trifluoroethan-1-ol] | < 100 |  |
| COCc1cc(-c2nccs2)c2oc(N3CC4CCC(C3)N4)nc2c1C(F)(F)F [Example 167, 2-(3,8-Diazabicyclo[3.2.1]octan-3-yl)-5-(methoxymethyl)-7-(thiazol-2-yl)-4-(trifluoromethyl)benzo[d]oxazole] | < 100 |  |
| CC(=O)c1ccc(-c2nccs2)c2oc(N3CC4CC(C3)N4)nc12 [Example 244, 1-(2-(3,6-Diazabicyclo[3.1.1]heptan-3-yl)-7-(thiazol-2-yl)benzo[d]oxazol-4-yl)ethan-1-one] |  | < 100 |
| CC(=O)c1cc(-c2nccs2)c2oc(N3CC4CC(C3)N4)nc2c1 [Example 109, 1-(2-(3,6-Diazabicyclo[3.1.1]heptan-3-yl)-7-(thiazol-2-yl)benzo[d]oxazol-5-yl)ethan-1-one] | < 100 |  |
| CC(O)(O)C(F)(F)Oc1ccc(-c2nccs2)c2oc(N3CC4CC(C3)N4)nc12 [Example 377, 1-((2-(3,6-Diazabicyclo[3.1.1]heptan-3-yl)-7-(thiazol-2-yl)benzo[d]oxazol-4-yl)oxy)-1,1-difluoropropane-2,2-diol] |  | < 100 |
| COC(c1cc(-c2nccs2)c2oc(N3CC4CCC(C3)N4)nc2c1OC(F)(F)F)C(F)F (stereo not drawn) [Example 209, 2-(3,8-Diazabicyclo[3.2.1]octan-3-yl)-5-(2,2-difluoro-1-methoxyethyl)-7-(thiazol-2-yl)-4-(trifluoromethoxy)benzo[d]oxazole] |  | < 100 |
| COC(C)c1cc(-c2nccs2)c2oc(N3CC4CC(C3)N4)nc2c1OC(F)(F)F (stereo not drawn) [Example 211, 2-(3,6-Diazabicyclo[3.1.1]heptan-3-yl)-5-(1-methoxyethyl)-7-(thiazol-2-yl)-4-(trifluoromethoxy)benzo[d]oxazole] |  | < 100 |
| FC(F)(F)COC(c1cc(-c2nccs2)c2oc(N3CC4CCC(C3)N4)nc2c1)C(F)(F)F (stereo not drawn) [Example 146, 2-(3,8-Diazabicyclo[3.2.1]octan-3-yl)-7-(thiazol-2-yl)-5-(2,2,2-trifluoro-1-(2,2,2-trifluoroethoxy)ethyl)benzo[d]oxazole] | < 100 |  |
| CCOC(=O)c1cc(-n2cccn2)c2oc(N3CC4CCCC(C3)N4)nc2c1 [Example 93, Ethyl 2-(3,9-diazabicyclo[3.3.1]nonan-3-yl)-7-(1H-pyrazol-1-yl)benzo[d]oxazole-5-carboxylate] | 100 to 1000 |  |
| O=C(c1cc(-c2nccs2)c2oc(N3CC4CCC(C3)N4)nc2c1)N1CCC1 [Example 97, (2-(3,8-Diazabicyclo[3.2.1]octan-3-yl)-7-(thiazol-2-yl)benzo[d]oxazol-5-yl)(azetidin-1-yl)methanone] | < 100 |  |
| CC(C)(O)C(F)(F)OC(c1ccc(-c2nccs2)c2oc(N3CC4CC(C3)N4)nc12)C(F)(F)F (stereo not drawn) [Example 257, 1-(1-(2-(3,6-Diazabicyclo[3.1.1]heptan-3-yl)-7-(thiazol-2-yl)benzo[d]oxazol-4-yl)-2,2,2-trifluoroethoxy)-1,1-difluoro-2-methylpropan-2-ol] |  | < 100 |
